What was measured:
Test in all cases: relative viability (nuclei count vs DMSO), 5 days (fraction); higher = more cells survive
[1] = compound: CC[C@H](CO)Nc1nc(NCc2ccccc2)c2ncn(C(C)C)c2n1 [Seliciclib] + CCNC(=O)c1noc(-c2cc(C(C)C)c(O)cc2O)c1-c1ccc(CN2CCOCC2)cc1 [Luminespib] (partner 0.01 µM)
In short: (§1)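 Lung cancer cell lines were pin-tool dosed in 1536-well plates on the day after seeding, with either a lone drug or a fixed anchor-drug dose plus five library-drug doses (not always all listed) in √10 steps. Nuclei were counted on 4× images after 5 days. Relative viability is the ratio of treated-well to vehicle-well nuclei counts, with each value a median of duplicate plates.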

[2] = compound: CC[C@H](CO)Nc1nc(NCc2ccccc2)c2ncn(C(C)C)c2n1 [Seliciclib] + Cc1nc(Nc2ncc(C(=O)Nc3c(C)cccc3Cl)s2)cc(N2CCN(CCO)CC2)n1 [Dasatinib] (partner 0.075 µM)
In short: as §1

[3] = compound: CC[C@H](CO)Nc1nc(NCc2ccccc2)c2ncn(C(C)C)c2n1 [Seliciclib] + N=C(N)NC(=N)NCCc1ccccc1 [Phenformin] (partner 250 µM)
In short: as §1

[4] = compound: CC[C@H](CO)Nc1nc(NCc2ccccc2)c2ncn(C(C)C)c2n1 [Seliciclib] + COc1cccc2cc(-c3nc([C@H]4CC[C@H](C(=O)O)CC4)n4ncnc(N)c34)[nH]c12 [OSI-027] (partner 0.5 µM)
In short: as §1

[5] = compound: CC[C@H](CO)Nc1nc(NCc2ccccc2)c2ncn(C(C)C)c2n1 [Seliciclib] + COc1cc2c(Oc3ccc(NC(=O)C4(C(=O)Nc5ccc(F)cc5)CC4)cc3F)ccnc2cc1OCCCN1CCOCC1 [Foretinib] (partner 0.25 µM)
In short: as §1

[6] = compound: CC[C@H](CO)Nc1nc(NCc2ccccc2)c2ncn(C(C)C)c2n1 [Seliciclib] + Cc1cc(Nc2cc(N3CCN(C)CC3)nc(Sc3ccc(NC(=O)C4CC4)cc3)n2)n[nH]1 [Tozasertib] (partner 0.1 µM)
In short: as §1

[7] = compound: CC[C@H](CO)Nc1nc(NCc2ccccc2)c2ncn(C(C)C)c2n1 [Seliciclib]
In short: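 A plate was accepted only when its control CV was below 25% and the cells had doubled at least once. Viability is defined from nuclear counts as treated wells divided by vehicle wells, with the median taken across plates. That median covers lung cancer cell lines grown in 1536-well plates, dosed by pinning at five √10-spaced library-drug concentrations, and counted in MetaXpress from 4× Hoechst images after 5 days.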

[8] = compound: CC[C@H](CO)Nc1nc(NCc2ccccc2)c2ncn(C(C)C)c2n1 [Seliciclib] + CC(=O)Nc1cccc(-n2c(=O)n(C3CC3)c(=O)c3c(Nc4ccc(I)cc4F)n(C)c(=O)c(C)c32)c1 [Trametinib] (partner 0.02 µM)
In short: as §1

[9] = compound: CC[C@H](CO)Nc1nc(NCc2ccccc2)c2ncn(C(C)C)c2n1 [Seliciclib] + Nc1ncn([C@H]2C[C@H](O)[C@@H](CO)O2)c(=O)n1 [Decitabine] (partner 2 µM)
In short: as §1

[10] = compound: CC[C@H](CO)Nc1nc(NCc2ccccc2)c2ncn(C(C)C)c2n1 [Seliciclib] + CC(=O)c1c(C)c2cnc(Nc3ccc(N4CCNCC4)cn3)nc2n(C2CCCC2)c1=O [Palbociclib] (partner 0.5 µM)
In short: as §1

[11] = compound: CC[C@H](CO)Nc1nc(NCc2ccccc2)c2ncn(C(C)C)c2n1 [Seliciclib] + Nc1nc2[nH]cc(CCc3ccc(C(=O)N[C@@H](CCC(=O)O)C(=O)O)cc3)c2c(=O)[nH]1 [Pemetrexed] (partner 0.2 µM)
In short: as §1

[12] = compound: CC[C@H](CO)Nc1nc(NCc2ccccc2)c2ncn(C(C)C)c2n1 [Seliciclib] + NC(=O)Nc1cc(-c2cccc(F)c2)sc1C(=O)N[C@H]1CCCNC1 [AZD7762] (partner 0.2 µM)
In short: as §1

[13] = compound: CC[C@H](CO)Nc1nc(NCc2ccccc2)c2ncn(C(C)C)c2n1 [Seliciclib] + O=C(c1cc(Cc2n[nH]c(=O)c3ccccc23)ccc1F)N1CCN(C(=O)C2CC2)CC1 [Olaparib] (partner 8 µM)
In short: as §1

[14] = compound: CC[C@H](CO)Nc1nc(NCc2ccccc2)c2ncn(C(C)C)c2n1 [Seliciclib] + O=C(CCCCCCC(=O)Nc1ccccc1)NO [Vorinostat] (partner 1 µM)
In short: as §1

For NCI-H1623, the relative viability ([1]; first compound 0.08 µM) was 0.66, the relative viability ([1]; first compound 0.253 µM) was 0.367 and the relative viability ([1]; first compound 0.8 µM) was 0.568. It also gave a relative viability ([1]; first compound 2.53 µM) of 0.558, a relative viability ([1]; first compound 8 µM) of 0.512 and a relative viability ([2]; first compound 0.08 µM) of 0.562. The relative viability ([2]; first compound 0.253 µM) was 0.479, the relative viability ([2]; first compound 0.8 µM) was 0.498 and the relative viability ([2]; first compound 2.53 µM) was 0.53. The relative viability ([2]; first compound 8 µM) was 0.603, the relative viability ([3]; first compound 0.08 µM) was 0.609 and the relative viability ([3]; first compound 0.253 µM) was 0.545. For the same cell line, the relative viability ([3]; first compound 0.8 µM) was 0.502, the relative viability ([3]; first compound 2.53 µM) was 0.507 and the relative viability ([3]; first compound 8 µM) was 0.538. For the same cell line, the relative viability ([4]; first compound 0.08 µM) was 0.425, the relative viability ([4]; first compound 0.253 µM) was 0.449 and the relative viability ([4]; first compound 0.8 µM) was 0.396. The relative viability ([4]; first compound 2.53 µM) was 0.415, the relative viability ([4]; first compound 8 µM) was 0.415 and the relative viability ([5]; first compound 0.08 µM) was 0.91. It also gave a relative viability ([5]; first compound 0.253 µM) of 0.773, a relative viability ([5]; first compound 0.8 µM) of 0.716 and a relative viability ([5]; first compound 2.53 µM) of 0.754. The relative viability ([5]; first compound 8 µM) was 0.864, the relative viability ([6]; first compound 0.08 µM) was 0.414 and the relative viability ([6]; first compound 0.253 µM) was 0.317. For the same cell line, the relative viability ([6]; first compound 0.8 µM) was 0.363, the relative viability ([6]; first compound 2.53 µM) was 0.418 and the relative viability ([6]; first compound 8 µM) was 0.414. It also gave a relative viability ([7]; 0.08 µM) of 0.968, a relative viability ([7]; 0.253 µM) of 0.867 and a relative viability ([7]; 0.8 µM) of 0.868. For the same cell line, the relative viability ([7]; 2.53 µM) was 1.01 and the relative viability ([7]; 8 µM) was 0.81.
For NCI-H1648, the relative viability ([8]; first compound 0.08 µM) was 0.5, the relative viability ([8]; first compound 0.253 µM) was 0.501 and the relative viability ([8]; first compound 0.8 µM) was 0.478. It also gave a relative viability ([8]; first compound 2.53 µM) of 0.406, a relative viability ([8]; first compound 8 µM) of 0.394 and a relative viability ([9]; first compound 0.08 µM) of 0.486. It also gave a relative viability ([9]; first compound 0.253 µM) of 0.615, a relative viability ([9]; first compound 0.8 µM) of 0.605 and a relative viability ([9]; first compound 2.53 µM) of 0.45. It also gave a relative viability ([9]; first compound 8 µM) of 0.473, a relative viability ([10]; first compound 0.08 µM) of 0.259 and a relative viability ([10]; first compound 0.253 µM) of 0.332. It also gave a relative viability ([10]; first compound 0.8 µM) of 0.308, a relative viability ([10]; first compound 2.53 µM) of 0.231 and a relative viability ([10]; first compound 8 µM) of 0.169. For the same cell line, the relative viability ([11]; first compound 0.08 µM) was 0.767, the relative viability ([11]; first compound 0.253 µM) was 0.922 and the relative viability ([11]; first compound 0.8 µM) was 0.963. The relative viability ([11]; first compound 2.53 µM) was 0.675, the relative viability ([11]; first compound 8 µM) was 0.591 and the relative viability ([12]; first compound 0.08 µM) was 0.775. The relative viability ([12]; first compound 0.253 µM) was 1.06, the relative viability ([12]; first compound 0.8 µM) was 0.758 and the relative viability ([12]; first compound 2.53 µM) was 0.826. For the same cell line, the relative viability ([12]; first compound 8 µM) was 0.71, the relative viability ([13]; first compound 0.08 µM) was 1.2 and the relative viability ([13]; first compound 0.253 µM) was 0.968. For the same cell line, the relative viability ([13]; first compound 0.8 µM) was 0.735, the relative viability ([13]; first compound 2.53 µM) was 0.734 and the relative viability ([13]; first compound 8 µM) was 0.397. The relative viability ([4]; first compound 0.08 µM) was 0.273, the relative viability ([4]; first compound 0.253 µM) was 0.313 and the relative viability ([4]; first compound 0.8 µM) was 0.281. For the same cell line, the relative viability ([4]; first compound 2.53 µM) was 0.251, the relative viability ([4]; first compound 8 µM) was 0.259 and the relative viability ([14]; first compound 0.08 µM) was 0.519. The relative viability ([14]; first compound 0.253 µM) was 0.909, the relative viability ([14]; first compound 0.8 µM) was 0.417 and the relative viability ([14]; first compound 2.53 µM) was 0.365. For the same cell line, the relative viability ([14]; first compound 8 µM) was 0.373, the relative viability ([6]; first compound 0.08 µM) was 0.531 and the relative viability ([6]; first compound 0.253 µM) was 0.825. For the same cell line, the relative viability ([6]; first compound 0.8 µM) was 0.413, the relative viability ([6]; first compound 2.53 µM) was 0.362 and the relative viability ([6]; first compound 8 µM) was 0.364. For the same cell line, the relative viability ([7]; 0.08 µM) was 0.922, the relative viability ([7]; 0.253 µM) was 1.11 and the relative viability ([7]; 0.8 µM) was 1.18. It also gave a relative viability ([7]; 2.53 µM) of 0.721 and a relative viability ([7]; 8 µM) of 0.704.

Source: the supplement of paper PMC10307832
